From patent US8114895B2, “Use of bipyridine compound ‘Caerulomycin A’ derivatives and analogs thereof as immunosuppressive agents” (Council of Science and Industrial Research, priority 2005, dated 2012)

Assays:
[1] = test system: calcium dependent pathway; experiment: Proliferation by the calcium dependent (PMA+Lonomycin) pathway; format: cell-based; conditions: 48 h
Description: Cells were seeded at 5×10^4 cells/well in flat-bottom 96-well plates. The various stimuli and Caerulomycin A were added at the initiation of the cultures. After 48 h, [^3H]-thymidine (1 μCi/well) was added, and its incorporation was measured 12 h later.

[2] = Funk and Divekar 1959; cited from earlier work
CD4^+ T cells = experiment: CD28, CTLA-4 and LFA-1 expression on T cells by flow cytometry; format: cell-based
Description: CD28 and CTLA-4 expression was detected on the surface of the resting and ConA activated CD4^+ T cells by flow cytometric analysis. Briefly, the splenocytes (3×10^6 cells/well) were activated with OVA (200 μg/ml) or ConA (1 μg/ml and 2 μg/ml) and were incubated in the presence of different concentrations of Caerulomycin A (0.0125-0.45 μg/ml). The cultures were harvested after 24, 48, 72 and 96 h and cells were stained for the expression of CD4, CD28 and CTLA-4. Further, cultures were also set where Caerulomycin A was added after 24 h and 48 h of the initiation of cultures and the cells were stained after incubating further for 24 h. The cells were harvested and 3-color staining was done using PE (Phycoerythrin) conjugated anti-CD4 Ab, FITC (Fluorescein isothiocyanate) conjugated anti-CTLA-4, and Cy (Cy-chrome) conjugated CD28 Abs. The cells from each suspension were acquired on CELLQUEST software of FACScan (Becton Dickinson, Mountain View, Calif.). […] The analysis for the mean fluorescence intensity (MFI) was done on histograms where abcissa and ordinate denote log fluorescence and relative cell count, respectively.
Examples establishing the role of Caerulomycin A [isolated from a novel species of Actinoalloteichus] in inducing immunosuppression based on the following: • Splenocytes of BALB/c mice were stimulated with either ConA (1 μg/ml and 2 μg/ml) or LPS (5 μg/ml and 10 μg/ml) and were cultured with different concentrations of Caerulomycin A (0.0003-0.1 μg/ml). […] Radioactivity incorporated was measured by liquid scintillation counting. • Antigen ovalbumin (100 μg/ml) emulsified in Freund's complete adjuvant was injected in a group consisting of 5 BALB/c mice. […] Radioactivity incorporated was measured by liquid scintillation. The culture supernatants were collected after 48 h and cytokines were measured by ELISA. • Immunosuppressive effect of different doses of Caerulomycin A was monitored on naïve CD4^+ T cells, antigen reactive CD4^+ T cells, Th2 clone and Th1 hybridoma. […]

[3] = CD4+ T cells, Caerulomycin A 0.0125-0.45 μg/ml

For `COc1cc(/C=N/O)nc(-c2ccccn2)c1` [Caerulomycin A, (E)-4-methoxy-2,2′-bipyridine-6-carbaldehyde oxime], the “proliferation of calcium dependent pathway” value [1] is listed as “significantly inhibited the proliferation”, the antibacterial activity [2] is listed as “mild antibacterial activity” and the antifungal activity [2] is listed as “strong antifungal activity”. For the same molecule, the “expression or percentage of LFA-1 positive cells” value (CD4^+ T cells) was “did not exhibit any significant change”, the “expression and percentage of CD28” value (CD4^+ T cells; [3]) was “decreased the expression and percentage” and the “expression and percentage of CTLA-4 positive cells” value (CD4^+ T cells; [3]) was “significantly enhanced the expression but also the percentage”.
